Laboratory results as given in patent publication US20260070887A1 (Shenzhen Zhongge Biological Technology Co., Ltd., priority 2022, published 2026).
Where two headings read alike, the source gives them in different places.

What was measured:
OVCAR-3 cells = experiment: OVCAR-3 cell proliferation (Cell Titer-Glo, 10 days); format: cell-based, human
Method: The inhibitory effect on the KIF18A target by the compounds of the present disclosure was evaluated by testing the inhibitory effect on proliferation of OVCAR-3 cells by the compounds of the present disclosure.
The following method was used to determine the effect of the compounds of the present disclosure on the proliferation of human ovarian cancer cells Ovcar-3 (HTB-161, ATCC). Cells were cultured in RPMI-1640 complete medium containing 20% fetal bovine serum, 0.01 mg/mL bovine insulin, 100 U penicillin, and 100 μg/mL streptomycin. The Promega kit Cell Titer-Glo (Cat. No. G7572) was used in this method for test.
For specific steps, reference was made to the kit instructions, and the procedure was outlined below: Test compounds were dissolved in DMSO to prepare a 10 mM stock solution, which was diluted at the predetermined test concentrations, and the test compounds at different concentrations were added to a 384-well cell test plate using ECHO. In the plate pre-added with the test compounds, 400 OVCAR-3 cells in the logarithmic growth phase were seeded per well, ensuring the final concentration of the test compounds in the reaction system ranged between 0.12 nM and 10 μM. The co-culture was maintained in a cell culture incubator for 10 days. Before testing, the cell culture plate was equilibrated for 10 minutes at room temperature, 25 μL of Cell Titer-Glo was added to each well, and the mixture was shaken and mixed well and let stand for 5 minutes. The luminescence values for samples in various wells were read using a microplate reader in Luminescence mode.
The percentage of inhibition of cell proliferation by the test compound at each concentration was calculated by comparing with the values of the control group (0.1% DMSO). The IC50 values of the compounds were obtained by concentration-inhibition rate nonlinear regression analysis of the test compounds using GraphPad Prism 9.

KIF18A = KIF18A (Homo sapiens (Human), UniProt Q8NI77); experiment: KIF18A ATPase activity under tubulin stimulation (ADP-Glo assay); format: biochemical; conditions: KIF18A 30 nM, ATP 150 μM, pig microtubules
Method: This experiment assesses the inhibitory effect of the compounds of the present disclosure on the KIF18A target according to the IC50 values by measuring the KIF18A ATPase activity under tubulin stimulation with the presence of the compounds.
• 1. Preparation of 30 mL of reaction buffer: • (1) 450 μL 1M Tris-HCl (pH=7.5)+300 μL 1M MgCl2+30 μL 10% Pluronic F-68 (ThermoFisher, 24040032-100 ml); • (2) adjusting pH to 7.5, and adding water to adjust the volume to 30 mL. • 2. Preparation of a 5 mg/mL pig microtubule (Microtubules; MT) (Cytoskeleton Inc, MT002) stock solution: • (1) 10 mL PM buffer=150 μL 1 M PIPES (pH 7.0)+20 μL 0.5 mM MgCl2+100 μL 2 mM Taxol (Cytoskeleton Inc, TXD01)+9730 μL water. • (2) MT ([…]): Adding 100 μL PM buffer to prepare a 5 mg/mL stock solution. Keeping the MT (Cytoskeleton Inc, MT002) at room temperature for 10-15 minutes, gently mixing and storing same at −80° C. • 3. Preparation of 2 mL of kinase buffer: 2 mL reaction buffer+1 μL 2 mM Taxol (Cytoskeleton Inc, TXD01)+12 μL 5 mg/mL MT (Cytoskeleton Inc, MT002). • 4. Preparation of 2×KIF18A (30 nM) (ChemPartner, CPB-P22-31645) working solution: 2.4 μL 10 μM KIF18A (ChemPartner, CPB-P22-31645)+800 μL 1× kinase buffer. • 5. Preparation of 2×ATP (150 μM) (Promega, G9101) working solution: 12 μL 10 mM ATP+800 μL 1× kinase buffer. • 6. 25 nL of compound was transferred to a 384-well plate using Echo650. • 7. 2.5 μL of 2×KIF18A from Step 4 (final concentration of 30 nM) was added to the 384-well plate and the plate was incubated at 25° C. for 15 minutes. • 8. 2.5 μL of 2×ATP from Step 5 (final concentration of 150 μM) was added to the 384-well plate and the plate was incubated at 25° C. for 15 minutes. • 9. 5 μL ADP-Glo™ Reagent (Promega, G9101) was added to the 384-well plate and the plate was incubated at 25° C. for 40 minutes. • 10. 10 μL of kinase detection reagent (Promega, G9101) was added to the 384-well plate and the plate was incubated at 25° C. for 40 minutes. • 11. Luminescence values were measured using the EnVision Xcite Multilabel Reader (PerkinElmer, 2105-0020).

KIF18A, sequence (Q8NI77 whole entry): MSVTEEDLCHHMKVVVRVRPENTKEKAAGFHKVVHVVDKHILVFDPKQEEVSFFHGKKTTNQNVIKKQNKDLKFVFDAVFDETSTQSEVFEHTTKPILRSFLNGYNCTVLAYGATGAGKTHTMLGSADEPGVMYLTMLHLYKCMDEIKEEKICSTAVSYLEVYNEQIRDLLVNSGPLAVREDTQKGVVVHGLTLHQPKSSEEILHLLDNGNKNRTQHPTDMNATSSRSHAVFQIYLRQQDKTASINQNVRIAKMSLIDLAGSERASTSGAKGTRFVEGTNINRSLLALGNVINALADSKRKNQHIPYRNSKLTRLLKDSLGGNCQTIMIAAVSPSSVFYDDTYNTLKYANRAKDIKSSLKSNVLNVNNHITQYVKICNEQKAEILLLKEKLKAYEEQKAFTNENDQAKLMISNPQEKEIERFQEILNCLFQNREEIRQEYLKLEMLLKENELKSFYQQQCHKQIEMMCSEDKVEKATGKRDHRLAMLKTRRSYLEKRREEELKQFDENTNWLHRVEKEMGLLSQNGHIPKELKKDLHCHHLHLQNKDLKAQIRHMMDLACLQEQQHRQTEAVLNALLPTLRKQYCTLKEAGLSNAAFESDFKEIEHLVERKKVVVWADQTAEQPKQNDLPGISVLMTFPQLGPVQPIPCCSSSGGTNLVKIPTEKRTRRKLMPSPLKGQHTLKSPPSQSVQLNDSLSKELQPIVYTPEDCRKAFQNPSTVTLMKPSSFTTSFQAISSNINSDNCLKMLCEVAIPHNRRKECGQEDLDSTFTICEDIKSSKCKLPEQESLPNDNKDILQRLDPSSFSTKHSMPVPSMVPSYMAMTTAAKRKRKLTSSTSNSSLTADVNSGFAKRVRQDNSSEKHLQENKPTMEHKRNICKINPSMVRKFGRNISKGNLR
KIF18A, sequence (P02550 whole entry partner): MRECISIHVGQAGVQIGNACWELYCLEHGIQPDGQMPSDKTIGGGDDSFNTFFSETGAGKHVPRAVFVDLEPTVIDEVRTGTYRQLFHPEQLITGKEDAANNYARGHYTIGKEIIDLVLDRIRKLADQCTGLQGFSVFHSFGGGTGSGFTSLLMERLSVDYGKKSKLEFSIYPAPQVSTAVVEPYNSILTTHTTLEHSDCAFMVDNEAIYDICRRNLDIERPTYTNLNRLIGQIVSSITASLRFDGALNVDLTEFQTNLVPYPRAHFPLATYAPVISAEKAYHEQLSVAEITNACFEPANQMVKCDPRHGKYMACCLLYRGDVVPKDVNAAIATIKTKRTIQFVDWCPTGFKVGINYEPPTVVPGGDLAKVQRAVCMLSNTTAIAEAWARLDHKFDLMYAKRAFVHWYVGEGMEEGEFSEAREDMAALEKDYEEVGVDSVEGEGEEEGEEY
KIF18A, sequence (P02554 whole entry partner): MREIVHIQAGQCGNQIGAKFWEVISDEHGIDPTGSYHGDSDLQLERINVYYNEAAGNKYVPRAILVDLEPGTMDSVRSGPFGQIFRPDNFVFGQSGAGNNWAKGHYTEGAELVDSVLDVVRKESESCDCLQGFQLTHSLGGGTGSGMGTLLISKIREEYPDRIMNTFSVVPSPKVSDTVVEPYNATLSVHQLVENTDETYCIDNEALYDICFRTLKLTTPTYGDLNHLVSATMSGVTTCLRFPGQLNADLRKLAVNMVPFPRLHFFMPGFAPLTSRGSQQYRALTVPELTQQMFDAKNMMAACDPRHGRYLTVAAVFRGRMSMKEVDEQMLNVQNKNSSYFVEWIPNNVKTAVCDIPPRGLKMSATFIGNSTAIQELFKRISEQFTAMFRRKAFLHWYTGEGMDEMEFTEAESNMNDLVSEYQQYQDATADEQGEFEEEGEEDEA

CCOc1ccc(NC(=O)c2ccc(NS(=O)(=O)CCO)cc2N2CCC(=C(F)F)CC2)c2cc3n(c12)CC(C)(C)OC3 [Example 536, 2-(4-(difluoromethylene)piperidin-1-yl)-N-(6-ethoxy-3,3-dimethyl-3,4-dihydro-1H-[1,4]oxazino[4,3-a]indol-9-yl)-4-((2-hydroxyethyl)sulfonamido)benzamide]
IC50 (OVCAR-3 cells; Homo sapiens, OVCAR-3, 240 h): 50 to 500 nM | IC50 (KIF18A): 50 to 500 nM

O=C(Nc1cccc2c1cc1n2CCCC1O)c1ccc(NS(=O)(=O)CCO)cc1N1CCC2(CC1)CC2 (stereo not shown) [Example 342, N-(9-hydroxy-6,7,8,9-tetrahydropyridino[1,2-a]indol-1-yl)-4-((2-hydroxyethyl)sulfonamido)-2-(6-azaspiro[2.5]octan-6-yl)benzamide]
IC50 (OVCAR-3 cells; Homo sapiens, OVCAR-3, 240 h): 50 to 500 nM | IC50 (KIF18A): ≤ 50 nM

O=C(Nc1ccc(OC(F)(F)F)c2c1cc1n2CCC(F)(F)C1)c1ccc(NS(=O)(=O)CCO)cc1N1CCC(=C(F)F)CC1 [Example 585]
IC50 (OVCAR-3 cells; Homo sapiens, OVCAR-3, 240 h): 50 to 500 nM | IC50 (KIF18A): 50 to 500 nM

COc1ccc(NC(=O)c2ccc(NS(=O)(=O)CCO)cc2N2CCC(=C(F)F)CC2)c2nc3n(c12)CC(C)(C)OC3 [Example 489]
IC50 (OVCAR-3 cells; Homo sapiens, OVCAR-3, 240 h): ≤ 50 nM | IC50 (KIF18A): 50 to 500 nM

Cc1cc(NC(=O)c2ccc(NS(=O)(=O)CCO)cc2N2CCC(=C(F)F)CC2)c2cc3n(c2c1)CC(C)(C)OC3 [Example 467, 2-(4-(difluoromethylene)piperidin-1-yl)-4-((2-hydroxyethyl)sulfonamide)-N-(3,3,7-trimethyl-3,4-dihydro-1H-[1,4]oxazino[4,3-a]indol-9-yl)benzamide]
IC50 (OVCAR-3 cells): 50 to 500 nM | IC50 (KIF18A): 50 to 500 nM

O=C(Nc1ccc2c(c1)N1CCC(F)(F)CC1CO2)c1ccc(NS(=O)(=O)CCO)cc1N1CCC(=C(F)F)CC1 (stereo not shown) [Compound 399]
IC50 (OVCAR-3 cells; Homo sapiens, OVCAR-3, 240 h): 500 to 5000 nM | IC50 (KIF18A): 50 to 500 nM

COc1ccc(C(=O)Nc2ccc(NS(=O)(=O)CCO)cc2N2CCC3(CC2)CC3)c2cc3n(c12)CC(C)(C)OC3 [Example 565]
IC50 (OVCAR-3 cells): ≤ 50 nM | IC50 (KIF18A): 50 to 500 nM

CC1Cn2c(cc3c(NC(=O)c4ccc(NS(=O)(=O)CCO)cc4N4CCC5(CC4)CC5)cccc32)C(C)O1 (stereo not shown) [Example 312, N-(1,3-dimethyl-3,4-dihydro-1H-[1,4]oxazino[4,3-a]indol-9-yl)-4-((2-hydroxyethyl)sulfonamido)-2-(6-azaspiro[2.5]oct-6-yl)benzamide]
IC50 (OVCAR-3 cells; Homo sapiens, OVCAR-3, 240 h): ≤ 50 nM | IC50 (KIF18A): 50 to 500 nM

O=C(Nc1ccnc2c1cc1n2CCOC1)c1ccc(NS(=O)(=O)CCO)cc1N1CCC(=C(F)F)CC1 [Compound 401, 2-(4-(difluoromethylene)piperidin-1-yl)-N-(8,9-dihydro-6H-pyrido[3′,2′:4,5]pyrrolo[2,1-c][1,4]oxazin-4-yl)-4-((2-hydroxyethyl)sulfonamido)benzamide]
IC50 (OVCAR-3 cells; Homo sapiens, OVCAR-3, 240 h): 50 to 500 nM | IC50 (KIF18A): ≤ 50 nM

O=C(Nc1cccc2c1cc1n2CCC(F)(F)C1O)c1ccc(NS(=O)(=O)CCO)cc1N1CCC2(CC1)CC2 (stereo not shown) [Compound 384, N-(8,8-difluoro-9-hydroxy-6,7,8,9-tetrahydropyridino[1,2-a]indol-1-yl)-4-((2-hydroxyethyl)sulfonamido)-2-(6-azaspiro[2.5]oct-6-yl)benzamide]
IC50 (OVCAR-3 cells; Homo sapiens, OVCAR-3, 240 h): ≤ 50 nM | IC50 (KIF18A): 50 to 500 nM

O=C(Nc1cccc2c1cnn2CC1CC1)c1ccc(NS(=O)(=O)CCO)cc1N1CCC2(CC1)CC2 [Example 287, N-(1-(cyclopropylmethyl)-1H-indazol-4-yl)-4-(2-hydroxyethylsulfonamido)-2-(6-azaspiro[2.5]octan-6-yl)benzamide]
IC50 (OVCAR-3 cells; Homo sapiens, OVCAR-3, 240 h): 50 to 500 nM | IC50 (KIF18A): 50 to 500 nM

O=C(Nc1ccc(NS(=O)(=O)CCO)cc1N1CCC2(CC1)CC2)c1cccc2c1cc1n2CCOC1 [Example 357]
IC50 (OVCAR-3 cells): 50 to 500 nM | IC50 (KIF18A): ≤ 50 nM

CC1(C)Cn2c(cc3c(NC(=O)c4ccc(NS(=O)(=O)CCO)nc4N4CCC5(CC4)CC5)cccc32)CO1 [Example 453, N-(3,3-dimethyl-3,4-dihydro-1H-[1,4]oxazino[4,3-a]indol-9-yl)-6-((2-hydroxyethyl)sulfonamido)-2-(6-azaspiro[2.5]octan-6-yl)nicotinamide]
IC50 (OVCAR-3 cells; Homo sapiens, OVCAR-3, 240 h): 500 to 5000 nM | IC50 (KIF18A): 50 to 500 nM

CC1(C)Cn2c(cc3c(NC(=O)c4ccc(NS(=O)(=O)CCO)cc4N4CCC(=C(F)F)CC4)ccc(OC(F)(F)F)c32)CO1 [Example 574]
IC50 (OVCAR-3 cells; Homo sapiens, OVCAR-3, 240 h): 50 to 500 nM | IC50 (KIF18A): 50 to 500 nM

COc1ccc(NC(=O)c2ccc(NS(=O)(=O)CCO)cc2N2CCC3(CC2)CC3)c2cc3n(c12)CCC(F)(F)C3O (stereo not shown) [Example 482, N-(8,8-difluoro-9-hydroxy-4-methoxy-6,7,8,9-tetrahydropyridino[1,2-a]indol-1-yl)-4-((2-hydroxyethyl)sulfonamido)-2-(6-azaspiro[2.5]oct-6-yl)benzamide]
IC50 (OVCAR-3 cells; Homo sapiens, OVCAR-3, 240 h): ≤ 50 nM | IC50 (KIF18A): ≤ 50 nM

O=C(Nc1ccc(OC(F)F)c2c1cc1n2CCC(F)(F)C1)c1ccc(NS(=O)(=O)CCO)cc1N1CCC(=C(F)F)CC1 [Example 586]
IC50 (OVCAR-3 cells; Homo sapiens, OVCAR-3, 240 h): 50 to 500 nM | IC50 (KIF18A): 50 to 500 nM

O=C(Nc1cc(F)cc2c1nc1n2CCOC1)c1ccc(NS(=O)(=O)CCO)cc1N1CCC(=C(F)F)CC1 [Example 369, 2-(4-(difluoromethylene)piperidin-1-yl)-N-(7-fluoro-3,4-dihydro-1H-benzo[4,5]imidazo[2,1-c][1,4]oxazin-9-yl)-4-((2-hydroxyethyl)sulfonamido)benzamide]
IC50 (OVCAR-3 cells; Homo sapiens, OVCAR-3, 240 h): 50 to 500 nM | IC50 (KIF18A): ≤ 50 nM

[2H]C([2H])([2H])Oc1ccc(NC(=O)c2ccc(NS(=O)(=O)CCO)cc2N2CCC3(CC2)CC3)c2cc3n(c12)CC(C)(C)OC3 [Example 575]
IC50 (OVCAR-3 cells; Homo sapiens, OVCAR-3, 240 h): ≤ 50 nM | IC50 (KIF18A): 50 to 500 nM

O=C(Nc1cccc2c1CCN2CC1CC1)c1ccc(NS(=O)(=O)CCO)cc1N1CCC2(CC1)CC2 [Example 5, N-(1-(cyclopropylmethyl)indoline-4-(2-hydroxyethyl)sulfonamido)-2-(6-azaspiro[2.5]octan-6-yl)benzamide]
IC50 (OVCAR-3 cells): 50 to 500 nM | IC50 (KIF18A): ≤ 50 nM

O=C(Nc1ccc(F)c2c1OCCN2CC1CC1)c1ccc(NS(=O)(=O)CCO)cc1N1CCC2(CC1)CC2 [Example 294, N-(4-(cyclopropylmethyl)-5-fluoro-3,4-dihydro-2H-benzo[b][1,4]oxazin-8-yl)-4-((2-hydroxyethyl)sulfonamido)-2-(6-azaspiro[2.5]oct-6-yl)benzamide]
IC50 (OVCAR-3 cells; Homo sapiens, OVCAR-3, 240 h): 500 to 5000 nM | IC50 (KIF18A): ≤ 50 nM

O=C(Nc1cccc2c1CC1COCCN21)c1ccc(NS(=O)(=O)CCO)cc1N1CCC2(CC1)CC2 (stereo not shown) [Compound 411, 4-((2-hydroxyethyl)sulfonamido)-2-(6-azaspiro[2.5]oct-6-yl)-N-(3,4,10,10-tetrahydro-1H-[1,4]oxazino[4,3-a]indol-9-yl)benzamide]
IC50 (OVCAR-3 cells): 50 to 500 nM | IC50 (KIF18A): 50 to 500 nM

[2H]C([2H])([2H])Oc1ccc(NC(=O)c2ccc(NS(=O)(=O)CCO)cc2N2CCC(=C(F)F)CC2)c2cc3n(c12)CC(C)(C)OC3 [Example 576]
IC50 (OVCAR-3 cells; Homo sapiens, OVCAR-3, 240 h): ≤ 50 nM | IC50 (KIF18A): 50 to 500 nM

CC1OCCn2c1cc1c(NC(=O)c3ccc(NS(=O)(=O)CCO)cc3N3CCC4(CC3)CC4)cccc12 (stereo not shown) [Compound 311-P1, 4-((2-hydroxyethyl)sulfonamido)-N-(1-methyl-3,4-dihydro-1H-[1,4]oxazinyl[4,3-a]indol-9-yl)-2-(6-azaspiro[2.5]oct-6-yl)benzamide]
IC50 (OVCAR-3 cells): 50 to 500 nM | IC50 (KIF18A): ≤ 50 nM
